“And” between values parts separate entries of the source, which are not always exact repeats. Identical values can stand only once.

Data set [1] relates to hematopoietic stem cells and megakaryocytes. The settings on record: cited from earlier work.
For data set [2] the following is noted: GLP toxicity test; cited from earlier work.
The next data set deals with sepsis animal model. To be noted: cecal-ligation-puncture sepsis model; cited from earlier work.
Data set [3] relates to recurrent oral ulceration (ROU). Briefly: In vivo effect of PLAG on recurrent oral ulceration in patients, self-reported scoring system. Also on record: species or system human. The source says:
Total 44 patients with recurrent oral ulceration (ROU) between 20 and 80 years old (34 female patients and 10 male patients, Disease; RAS ([…]), BD (27 patients), SLE (1 patient), Mean age: 49.3±9.0) were enrolled in the study. The diagnosis of ROU was made based upon the history and the physical examination on oral mucosa by physicians. We included three conditions with recurrent oral ulceration: Recurrent aphthous stomatitis (RAS), Behcet's disease (BD), Systemic lupus erythematosus (SLE). After completing baseline assessments, 250 mg of PLAG was administered to the patients orally twice a day (250 mg PLAG per tablet, 500 mg/day) for 2-4 weeks. The change of recurrent oral ulcer in the patients was evaluated at 2 or 4 weeks after the treatment by using self-reported scoring system (total 12 points), including the following three measurements: change of ulcer frequency (Likert 0-4), Change of ulcer severity: pain & size (Likert 0-4) and Change of ulcer duration (Likert 0-4).

[4] abbreviates: 44 patients, relation to PLAG cannot be excluded.
The mark [5] stands for this setting: average of 44 patients, 500 mg/day orally, 2-4 weeks.

Consider `CCCCC/C=C\C/C=C\CCCCCCCC(=O)OC(COC(C)=O)COC(=O)CCCCCCCCCCCCCCC` (stereo not shown) [PLAG, 1-palmitoyl-2-linoleoyl-3-acetylglycerol], for which the growth-stimulating activities entry in data set [1] is “have growth-stimulating activities of hematopoietic stem cells and megakaryocytes”. Besides, the toxicity result in data set [2] is “no toxicity”. Further, in the data set on sepsis animal model, the “survivability ratio of animals” value is reported as “increases survivability ratio of animals”. Besides, the “side effect of PLAG” value in data set [3] (44 patients, 500 mg/day orally, 2-4 weeks) is listed as “any clear side effect of PLAG was not identified”. Further, in data set [3] (setting [4]), the “patients with mild dyspepsia” value was “two”, the “patients with mild skin rash” value is “one” and the “patients with mild taste change (metallic taste)” value is “one”. Besides, in data set [3] (administration of PLAG to the patients), the “effect on symptoms of oral ulceration” value is “significantly improves the symptoms of oral ulceration”. Besides, in data set [3] (setting [5]), the “change of ulcer duration (Likert 0-4), average” value is 1.86±0.72 and 1.86; the “change of ulcer frequency (Likert 0-4), average” value was 2.07±0.55 and 2.07; the “change of ulcer severity: pain & size (Likert 0-4), average” value was 2.13±0.68 and 2.14; the “total (sum of the three scores), average” value is 5.93±1.76 points and 5.93 points. For the same molecule, the significant improvement in data set [3] (individual patient, 1 or 0 from sum of the three scores) is recorded as 1 (considered to be significantly improved when the sum of the three scores was more than 5 points).

The record behind these values is US9808438B2, “Method for treating mucositis” (ENZYCHEM LIFESCIENCES CORPORATION, priority 2015, dated 2017).
